# Test results as given in article PMC6109063 (Nature Communications, 2018).
# Target: T1, FgGcn5 (Fusarium graminearum, UniProt I1R9W6)
# T1 construct: gene FGRAMPH1_01T00753
# Conditions: inhibitor; 30 ug/ml PCN; recombinant GST-H3 substrate, 5 mM acetyl-CoA, Tris-HCl pH 8.0, 37 C, 45 min
# T1 sequence (I1R9W6 1-396): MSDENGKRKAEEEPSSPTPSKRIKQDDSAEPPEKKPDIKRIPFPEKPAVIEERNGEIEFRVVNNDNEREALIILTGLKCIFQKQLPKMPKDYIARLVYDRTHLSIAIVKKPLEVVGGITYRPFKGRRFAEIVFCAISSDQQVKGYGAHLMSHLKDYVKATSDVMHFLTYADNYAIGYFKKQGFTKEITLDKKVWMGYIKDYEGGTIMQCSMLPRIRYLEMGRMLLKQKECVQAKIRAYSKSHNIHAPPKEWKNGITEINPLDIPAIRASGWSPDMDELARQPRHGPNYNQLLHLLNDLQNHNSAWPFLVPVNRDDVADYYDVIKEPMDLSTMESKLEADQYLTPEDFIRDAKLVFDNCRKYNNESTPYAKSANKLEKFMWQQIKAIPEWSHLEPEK
smiles,measurement,value
"NC(=O)c1cccc2nc3ccccc3nc12 [PCN, phenazine-1-carboxamide]","in vitro histone H3 acetylation assay, immunoblot (H3 pan-acetyl and H3K18ac)",demonstrating that PCN was able to inhibit the HAT activity of FgGcn5 in vitro
